Source: PubChem BioAssay AID1845216 (Molecular Pharmacology Branch, DTP, NCI, 2023)

Tested on: SW 982 tumor spheroid viability
Assay: Anticancer human tumor SW 982 cell line growth inhibition;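 also: spheroids exposed to compound for 7 days before readout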
Conditions: spheroids with HUVEC and MSC; for IC50: curve of first compound; for viability, T/C: stronger effect = lower value
How it was run: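 Complex tumor spheroids combined malignant cells with endothelial cells and mesenchymal stem cells. DNA-damaging drugs and DNA repair inhibitors were tested alone and in combination, at half-log dilutions down from clinical Cmax (top 10 microM if Cmax unknown), 0.25% DMSO final.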

[1] = second compound 30 pM, first compound 0.0316 µM
[2] = second compound 30 pM, first compound 0.1 µM
[3] = second compound 30 pM, first compound 0.316 µM
[4] = second compound 30 pM, first compound 1 µM
[5] = second compound 30 pM, first compound 3.16 µM
[6] = second compound 30 pM, first compound 10 µM
[7] = second compound 94.9 pM, first compound 0.0316 µM
[8] = second compound 94.9 pM, first compound 0.1 µM
[9] = second compound 94.9 pM, first compound 0.316 µM
[10] = second compound 94.9 pM, first compound 1 µM
[11] = second compound 94.9 pM, first compound 3.16 µM
[12] = second compound 94.9 pM, first compound 10 µM
[13] = second compound 0.0003 µM, first compound 0.0316 µM
[14] = second compound 0.0003 µM, first compound 0.1 µM
[15] = second compound 0.0003 µM, first compound 0.316 µM
[16] = second compound 0.0003 µM, first compound 1 µM
[17] = second compound 0.0003 µM, first compound 3.16 µM
[18] = second compound 0.0003 µM, first compound 10 µM
[19] = second compound 0.000949 µM, first compound 0.0316 µM
[20] = second compound 0.000949 µM, first compound 0.1 µM
[21] = second compound 0.000949 µM, first compound 0.316 µM
[22] = second compound 0.000949 µM, first compound 1 µM
[23] = second compound 0.000949 µM, first compound 3.16 µM
[24] = second compound 0.000949 µM, first compound 10 µM
[25] = second compound 0.003 µM, first compound 0.0316 µM
[26] = second compound 0.003 µM, first compound 0.1 µM
[27] = second compound 0.003 µM, first compound 0.316 µM
[28] = second compound 0.003 µM, first compound 1 µM
[29] = second compound 0.003 µM, first compound 3.16 µM
[30] = second compound 0.003 µM, first compound 10 µM

`CC1COCCN1c1cc(-c2ccnn2C)c2ccnc(-c3ccn[nH]3)c2n1` (stereo not given) + COc1cc2c(cc1O)CCNC21CSC2c3c(OC(C)=O)c(C)c4c(c3C(COC1=O)N1C(O)C3Cc5cc(C)c(OC)c(O)c5C(C21)N3C)OCO4 gave an IC50 (second compound 30 pM) of under 31.6 nM, an IC50 (second compound 94.9 pM) of under 31.6 nM and an IC50 (second compound 0.0003 µM) of under 31.6 nM. It also gave an IC50 (second compound 0.000949 µM) of under 31.6 nM, an IC50 (second compound 0.003 µM) of under 31.6 nM and a viability, T/C [1] of 30.3%. For the same molecule, the viability, T/C [2] was 21.2%, the viability, T/C [3] was 16.3% and the viability, T/C [4] was 14.8%. The viability, T/C [5] was 16.5%, the viability, T/C [6] was 19.5% and the viability, T/C [7] was 28%. The viability, T/C [8] was 19.8%, the viability, T/C [9] was 14.6% and the viability, T/C [10] was 12.7%. For the same molecule, the viability, T/C [11] was 16.6%, the viability, T/C [12] was 18.9% and the viability, T/C [13] was 18.7%. The viability, T/C [14] was 16.3%, the viability, T/C [15] was 12.6% and the viability, T/C [16] was 10.9%. For the same molecule, the viability, T/C [17] was 14.7%, the viability, T/C [18] was 14.6% and the viability, T/C [19] was 13.8%. For the same molecule, the viability, T/C [20] was 10.5%, the viability, T/C [21] was 6.7% and the viability, T/C [22] was 4.79%. The viability, T/C [23] was 3.55%, the viability, T/C [24] was 1.4% and the viability, T/C [25] was 1.23%. For the same molecule, the viability, T/C [26] was 1.25%, the viability, T/C [27] was 0.44% and the viability, T/C [28] was 0.7%. The viability, T/C [29] was 0.39% and the viability, T/C [30] was 0.98%.

For `COc1cc(C)[nH]c(=O)c1CN1CCc2c(Cl)cc(C(OC)C3COC3)c(Cl)c2C1=O` (stereo not given) + COc1cc2c(cc1O)CCNC21CSC2c3c(OC(C)=O)c(C)c4c(c3C(COC1=O)N1C(O)C3Cc5cc(C)c(OC)c(O)c5C(C21)N3C)OCO4, the IC50 (second compound 30 pM) was over 10000 nM, the IC50 (second compound 94.9 pM) was over 10000 nM and the IC50 (second compound 0.0003 µM) was over 10000 nM. The IC50 (second compound 0.000949 µM) was under 31.6 nM, the IC50 (second compound 0.003 µM) was under 31.6 nM and the viability, T/C [1] was 98.5%. It also gave a viability, T/C [2] of 107%, a viability, T/C [3] of 90.2% and a viability, T/C [4] of 97.7%. The viability, T/C [5] was 102%, the viability, T/C [6] was 107% and the viability, T/C [7] was 90.5%. For the same molecule, the viability, T/C [8] was 95.6%, the viability, T/C [9] was 95.7% and the viability, T/C [10] was 103%. For the same molecule, the viability, T/C [11] was 99.8%, the viability, T/C [12] was 91.7% and the viability, T/C [13] was 86.9%. The viability, T/C [14] was 82.9%, the viability, T/C [15] was 89.1% and the viability, T/C [16] was 91.3%. For the same molecule, the viability, T/C [17] was 84.7%, the viability, T/C [18] was 85.3% and the viability, T/C [19] was 38.3%. For the same molecule, the viability, T/C [20] was 48.7%, the viability, T/C [21] was 38% and the viability, T/C [22] was 45.6%. The viability, T/C [23] was 47.3%, the viability, T/C [24] was 28.3% and the viability, T/C [25] was 0.42%. It also gave a viability, T/C [26] of 0.99%, a viability, T/C [27] of 0.77% and a viability, T/C [28] of 0.49%. The viability, T/C [29] was 0.64% and the viability, T/C [30] was 1.1%.
